Experimental data reported in patent US8562975B2, “Method for stabilizing reduced coenzyme Q10 and composition therefor” (Kaneka Corporation, priority 2002, dated 2013).

What was measured:
[1] = Storage stability of reduced coenzyme Q10 compositions in the air at 40° C., light-shielded, 3 days (HPLC weight ratio); type: physicochemical; conditions: vitamin E content high (4.11% by weight based on the system excluding coenzyme Q10)
Description: The purity and reduced coenzyme Q10/oxidized coenzyme Q10 ratio (weight ratio) were determined by the following HPLC analysis.
C18 (product of Waters), 250 mm (in length), 4.6 mm (in inside diameter): mobile phase; C2H5OH/CH3OH=4/3 (v/v): detection wavelength; 210 nm: flow rate; 1 ml/min: retention time of reduced coenzyme Q10; 9.1 min: retention time of oxidized coenzyme Q10; 13.3 min.
The crystals obtained in Production Example 1 were added to soybean oil, glycerol, and a mixture thereof, respectively, to a concentration of 6% by weight, and the resulting mixtures were stored in the air at 40° C. under a light-shielded condition for 3 days, and the reduced coenzyme Q10/oxidized coenzyme Q10 weight ratios in the solutions were determined.
The crystals obtained in Production Example 1 were added to various fats and oils specified in Table 2, respectively, to a concentration of 6% by weight, and the resulting mixtures were stored in the air at 40° C. under a light-shielded condition for 3 days, and the reduced coenzyme Q10/oxidized coenzyme Q10 weight ratios in the solutions were determined.
The crystals obtained in Production Example 1 were added to olive oil to a concentration of 6% by weight, and the resulting mixture was stored in the air at 40° C. under a light-shielded condition for 3 days. […]

[2] = Solubility of reduced coenzyme Q10 crystals in fats and oils at 30° C.; type: physicochemical
Description: The solubility of the crystals obtained in Production Example 1 in medium-chain fatty acid triglyceride (MCT, C8:C10=6:4), soybean oil, safflower oil, or rice oil at 30° C. is shown in Table 8.

Row | Compound | effect on stabilization of reduced coenzyme Q10, in words [1] | Solubility ([2]; in MCT (C8:C10=6:4) at 30° C.) [wt %] | Solubility ([2]; in rice oil at 30° C.) [wt %] | Solubility ([2]; in safflower oil at 30° C.) [wt %] | Solubility ([2]; in soybean oil at 30° C.) [wt %]
1 | vitamin E | inhibits the stabilization of reduced coenzyme Q10 |  |  |  | 
2 | COc1c(O)c(C)c(C/C=C(\C)CC/C=C(\C)CC/C=C(\C)CC/C=C(\C)CC/C=C(\C)CC/C=C(\C)CC/C=C(\C)CC/C=C(\C)CC/C=C(\C)CCC=C(C)C)c(O)c1OC [Compar. Ex. 1, reduced coenzyme Q10] |  | 22.4 | 10.2 | 11.1 | 10.9
